# Measured values as given in PMC8688955 (Frontiers in Pharmacology, 2021).
# Where “and” joins values, the source holds several entries; their conditions need not be identical. Equal entries are not always repeated. Where two headings read alike, the source gives them in different places.
# Experiments:
# CI-AMPARs [1] = target: T1, CI-AMPARs (Rattus norvegicus, UniProt P19491, Q607R); test: Whole-cell patch-clamp of kainate-induced currents in isolated hippocampal CA1 pyramidal neurons; format: cell-based, Wistar rat; conditions: for inhibition at 300 µM: 300 µM compound, read-out: percentage of inhibition at 300-µM concentration; for CI-AMPARs % inhibition at 100 µM: 100 µM compound; for CI-AMPARs % inhibition at 100 µM / inhibition at 100 µM: currents induced by 100 µM kainate, mean ± SD, N = 5; for inhibition at 100 µM: read-out: CI-AMPARs % inhibition at 100 µM, 100 µM compound; for Activity drop in the presence of cyclothiazide: 50 µM kainate
# T1 construct: activity against native calcium-permeable AMPA receptors (CP-AMPARs) and calcium-impermeable AMPA receptors (CI-AMPARs); endogenous in cells; host or cells: acutely isolated pyramidal neurons from the CA1 area of Wistar rat hippocampal slices
# Procedure: All experimental procedures were approved by the Animal Care and Use Committee of the I.M. Sechenov Institute of Evolutionary Physiology and Biochemistry of the Russian Academy of Sciences. Wistar rats (13–19 days old) were anesthetized with sevoflurane and then decapitated. Maximum effort was made to minimize the number of animals used. Brains were removed quickly and cooled to 2–4°C in an ice bath. […] The antagonism of CI-AMPARs was studied on pyramidal neurons from the CA1 area of the hippocampus.
# Series resistance of about 20 MΩ was compensated by 70–80% and monitored during experiments. Currents were recorded using an EPC-8 amplifier (HEKA Electronics, Lambrecht, Germany), filtered at 5 kHz, sampled, and stored on a personal computer. Drugs were applied using the RSC-200 perfusion system (BioLogic Science Instruments, Claix, France) under computer control. The solution exchange time in the whole-cell mode was 50–60 ms. […] The pipette solution contained (in mM) CsF 100, CsCl 40, NaCl 5, CaCl2 0.5, EGTA 5, and HEPES 10 (pH was adjusted to 7.2 with CsOH). Experiments were performed at room temperature (22–24°C). […] Lamotrigine, topiramate, levetiracetam, felbamate, carbamazepine, tiagabin, vigabatrin, zonisamide, and gabapentin were purchased from Tocris Bioscience (Bristol, United Kingdom). Perampanel was from MedChemExpress (Stockholm, Sweden). Kinetics of transient processes of more than 20-ms duration was approximated by exponential functions. Experiments were performed at −80 mV holding voltage. All experimental data are presented as mean ± SD estimated from at least four experiments. Significance of the effects was tested with paired t test. Differences were considered significant at p < 0.05. 3D structures of compounds were calculated by the ZMM software (zmmsoft.ca).
# hGluA1-4 receptors = test system: hGluA1-4 receptors; parameters: method as in Fukushima et al. (2020); conditions: ref Fukushima et al. (2020); cited from earlier work
# CP-AMPARs = test: Whole-cell patch-clamp of kainate-induced currents in isolated striatal giant interneurons; format: cell-based, Wistar rat; conditions: −80 mV; for CP-AMPARs % inhibition at 100 µM: 100 µM compound, currents induced by 100 µM kainate, mean ± SD, N = 5
# Procedure: All experimental procedures were approved by the Animal Care and Use Committee of the I.M. Sechenov Institute of Evolutionary Physiology and Biochemistry of the Russian Academy of Sciences. Wistar rats (13–19 days old) were anesthetized with sevoflurane and then decapitated. Maximum effort was made to minimize the number of animals used. Brains were removed quickly and cooled to 2–4°C in an ice bath. […] Single neurons were freed from slices by vibrodissociation ([Vorobjev, 1991]). The antagonism of CP-AMPARs was studied on striatal giant interneurons ([Bernard et al., 1997]; [Gotz et al., 1997]), which were identified by their shape and size. […] The antagonism of CI-AMPARs was studied on pyramidal neurons from the CA1 area of the hippocampus.
# Series resistance of about 20 MΩ was compensated by 70–80% and monitored during experiments. Currents were recorded using an EPC-8 amplifier (HEKA Electronics, Lambrecht, Germany), filtered at 5 kHz, sampled, and stored on a personal computer. Drugs were applied using the RSC-200 perfusion system (BioLogic Science Instruments, Claix, France) under computer control. The solution exchange time in the whole-cell mode was 50–60 ms. The extracellular solution contained (in mM) NaCl 143, KCl 5, MgCl2 2.0, CaCl2 2.5, D-glucose 18, and HEPES 10 (pH was adjusted to 7.3 with HCl). The pipette solution contained (in mM) CsF 100, CsCl 40, NaCl 5, CaCl2 0.5, EGTA 5, and HEPES 10 (pH was adjusted to 7.2 with CsOH). Experiments were performed at room temperature (22–24°C). […] Lamotrigine, topiramate, levetiracetam, felbamate, carbamazepine, tiagabin, vigabatrin, zonisamide, and gabapentin were purchased from Tocris Bioscience (Bristol, United Kingdom). Perampanel was from MedChemExpress (Stockholm, Sweden). Kinetics of transient processes of more than 20-ms duration was approximated by exponential functions. Experiments were performed at −80 mV holding voltage. All experimental data are presented as mean ± SD estimated from at least four experiments. Significance of the effects was tested with paired t test. Differences were considered significant at p < 0.05. 3D structures of compounds were calculated by the ZMM software (zmmsoft.ca).
# CI-AMPARs [2] = target: T1, CI-AMPARs; parameters: method as in Barygin, 2016; conditions: ref Barygin, 2016; cited from earlier work
# T1 sequence (P19491 22-883 Q607R): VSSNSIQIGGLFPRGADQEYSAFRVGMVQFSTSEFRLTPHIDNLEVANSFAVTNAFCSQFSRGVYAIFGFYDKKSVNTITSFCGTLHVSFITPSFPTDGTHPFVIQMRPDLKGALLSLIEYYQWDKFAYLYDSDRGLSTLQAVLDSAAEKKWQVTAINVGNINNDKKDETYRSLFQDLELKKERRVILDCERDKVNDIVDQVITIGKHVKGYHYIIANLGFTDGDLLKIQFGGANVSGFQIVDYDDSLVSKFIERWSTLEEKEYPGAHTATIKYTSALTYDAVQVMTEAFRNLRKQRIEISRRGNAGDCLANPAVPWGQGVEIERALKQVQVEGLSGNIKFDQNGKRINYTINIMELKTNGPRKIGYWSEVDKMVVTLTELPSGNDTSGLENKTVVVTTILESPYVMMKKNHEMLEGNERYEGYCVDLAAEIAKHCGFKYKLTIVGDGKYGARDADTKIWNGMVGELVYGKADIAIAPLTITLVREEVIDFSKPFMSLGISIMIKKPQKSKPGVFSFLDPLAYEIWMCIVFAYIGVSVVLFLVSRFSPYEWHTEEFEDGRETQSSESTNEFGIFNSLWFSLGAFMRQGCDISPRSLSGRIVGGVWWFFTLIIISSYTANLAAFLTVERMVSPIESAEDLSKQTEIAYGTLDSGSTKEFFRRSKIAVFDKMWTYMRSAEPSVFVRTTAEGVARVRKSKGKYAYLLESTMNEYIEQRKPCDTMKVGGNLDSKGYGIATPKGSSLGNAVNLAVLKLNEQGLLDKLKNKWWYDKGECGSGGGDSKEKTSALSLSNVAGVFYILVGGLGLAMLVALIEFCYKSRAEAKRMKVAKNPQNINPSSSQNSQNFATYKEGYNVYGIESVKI
structure (smiles),measurement,setting,value
NS(=O)(=O)c1cc2c(cc1Cl)NC(C1CC3C=CC1C3)NS2(=O)=O (centres unmarked) [Cyclothiazide],fold potentiation,"CI-AMPARs [1]; Kainate, 50 μM +/- cyclothiazide, 100 μM, representative recording, Figure 5A",7.4 fold
same,fold induction at 100 µM,"CI-AMPARs [1]; read-out: increase of the stationary current induced by 50 µM kainate, 100 µM cyclothiazide",8 ± 2
CCCC(CCC)C(=O)O [valproate],activity against hGluA1-4 receptors,hGluA1-4 receptors,did not find significant activity
CCC1(C)CC(=O)NC1=O (centres unmarked) [ethosuximide],inhibition at 300 µM,CI-AMPARs [1],≤ 20%
O=C1NC(=O)C(Cc2ccccc2)N1 (centres unmarked) [5-benzylhydantoin],inhibition at 300 µM,CI-AMPARs [1],≤ 20%
Cc1ccsc1C(=CCCN1CCCC(C(=O)O)C1)c1sccc1C (centres unmarked) [Tiagabin],CI-AMPARs % inhibition at 100 µM,CI-AMPARs [1]; −80 mV,14 ± 2%
same,inhibition at 100 µM,CI-AMPARs [1]; −80 mV,≤ 20%
same,CP-AMPARs % inhibition at 100 µM,CP-AMPARs,10 ± 2%
same,CP-AMPARs % inhibition at 100 µM,CP-AMPARs; listed as tiagabin,≤ 20%
NC(=O)OCC(COC(N)=O)c1ccccc1 [Felbamate],CI-AMPARs % inhibition at 100 µM,CI-AMPARs [1]; −80 mV,16 ± 4%
same,inhibition at 100 µM,CI-AMPARs [1]; −80 mV,≤ 20%
same,CP-AMPARs % inhibition at 100 µM,CP-AMPARs,10 ± 4%
same,CP-AMPARs % inhibition at 100 µM,CP-AMPARs; listed as felbamate,≤ 20%
CCCC(C)C1(CC)C(=O)NC(=O)NC1=O (centres unmarked) [Pentobarbital],% block,CI-AMPARs [1],56% and 42%
same,Activity drop at high (500 µM) kainate concentration,CI-AMPARs [1],more active in the case of lower kainate concentration and Yes
same,More active against CI-AMPARs,CI-AMPARs [1],Yes
same,effect on maximal response to kainate,CI-AMPARs [1]; 14 µM pentobarbital,decreased the maximal response to kainate
same,Activity drop in the presence of cyclothiazide,CI-AMPARs [1]; 100 µM cyclothiazide,Yes
same,Activity drop in the presence of cyclothiazide,"CI-AMPARs [1]; 100 µM cyclothiazide, listed as pentobarbital",significantly attenuated in the presence of cyclothiazide
same,decrease in the % of inhibition with the increase in agonist concentration,CI-AMPARs [1]; 50 vs 500 µM kainate,10–15%
same,% block,"CI-AMPARs [1]; Pentobarbital, 50 μM, Kainate, 50 μM + cyclothiazide, 100 μM, representative recording, Figure 5E",27%
same,% block,"CI-AMPARs [1]; Pentobarbital, 50 μM, Kainate, representative recording, Figure 5D",75%
same,Difference in the % of inhibition in coapplication and preapplication protocols,CI-AMPARs [1]; coapplication with kainate vs preapplication without kainate,more active in the coapplication protocol and Yes
same,Trap in kainate 100 µM,"CI-AMPARs [1]; double-pulse protocol, 30-s pause",Yes
same,IC50,"CI-AMPARs [1]; kainate-induced currents, Hill equation, −80 mV",14 ± 3 µM
same,pH-dependence,CI-AMPARs [1]; pH 7.4 vs 9.0,Yes
same,% block,"CI-AMPARs [1]; pentobarbital 30 μM, pH 7.4, Kainate, 100 μM, representative recording, Figure 10B",65%
same,% block,"CI-AMPARs [1]; pentobarbital 30 μM, pH 9.0, Kainate, 100 μM, representative recording, Figure 10B",27%
same,IC50,"CP-AMPARs; read-out: IC50 CP-AMPARs, kainate-induced currents, Hill equation",80 ± 13 µM
NS(=O)(=O)Cc1noc2ccccc12 [Zonisamide],CI-AMPARs % inhibition at 100 µM,CI-AMPARs [1]; −80 mV,11 ± 2%
same,inhibition at 100 µM,CI-AMPARs [1]; −80 mV,≤ 20%
same,CP-AMPARs % inhibition at 100 µM,CP-AMPARs,11 ± 3%
same,CP-AMPARs % inhibition at 100 µM,CP-AMPARs; listed as zonisamide,≤ 20%
CC1=NN=C(c2ccc(N)cc2)c2cc3c(cc2C1)OCO3 [GYKI-52466],effect on the slow phase of recovery from 50 µM phenytoin,CI-AMPARs [1]; 200 µM GYKI-52466,remains unchanged
same,displacement of slow negative allosteric antagonist perampanel,CI-AMPARs [2],able to displace
